Data published in ChEMBL document CHEMBL3885861, “Open TG-GATES”.

Species: Rattus norvegicus
Assay: Open TG-GATES - Regimen: Single
Assay type: toxicity, organism-based, Sprague-Dawley
Set-up: regimen Single, gender Male, age 6 weeks
Settings: in vivo, po, 120 mg/kg, route gavage, dose level Middle; for APTT / Bas / Eos / Fbg / Hb / Ht / Lym / MCH / MCHC / MCV / Mono / Neu / PT / Plat / RBC / Ret / WBC: tissue Blood; for KIDNEY_L / KIDNEY_R / KIDNEY_TOTAL: tissue Kidney; for LIVER: tissue Liver; for A/G / ALP / ALT / AST / BUN / CRE / Ca / Cl / DBIL / GLC / IP / K / LDH / Na / PL / RALB / TBIL / TC / TG / TP / gamma-GTP: tissue Plasma

## COc1ccc(Cc2nccc3cc(OC)c(OC)cc23)cc1OC [PAPAVERINE]
3 h
  TERMINAL_BW: 221.6 g
  APTT: 22.7 s
  Bas: 0%
  Eos: 1%
  Fbg: 312.8 mg/dL
  Hb: 13.4 g/dL
  Ht: 40.5%
  Lym: 77.6%
  MCH: 20.9 pg
  MCHC: 33.2%
  MCV: 63 fL
  Mono: 2.4%
  Neu: 17.8%
  PT: 15.9 s
  Plat: 108.5 x10_4/uL
  RBC: 641.8 x10_4/ul
  Ret: 7.3%
  WBC: 88.5 x10_2/uL
  KIDNEY_L: 0.9 g
  KIDNEY_R: 1 g
  KIDNEY_TOTAL: 1.9 g
  LIVER: 9.5 g
  A/G: 1.2
  ALP: 1542 IU/L
  ALT: 43.6 IU/L
  AST: 78.6 IU/L
  BUN: 11.4 mg/dL
  CRE: 0.1 mg/dL
  Ca: 11 mg/dL
  Cl: 107.8 meq/L
  DBIL: 0 mg/dL
  GLC: 181.4 mg/dL
  IP: 8.7 mg/dL
  K: 4 meq/L
  LDH: 162.8 IU/L
  Na: 141.8 meq/L
  PL: 128.4 mg/dL
  RALB: 2.9 g/dL
  TBIL: 0.008 mg/dL
  TC: 74.6 mg/dL
  TG: 43.8 mg/dL
  TP: 5.3 g/dL
  gamma-GTP: 2 IU/L
6 h
  TERMINAL_BW: 219.8 g
  APTT: 20.9 s
  Bas: 0%
  Eos: 0.8%
  Fbg: 317.8 mg/dL
  Hb: 13 g/dL
  Ht: 39.5%
  Lym: 80.2%
  MCH: 20.9 pg
  MCHC: 32.9%
  MCV: 63.7 fL
  Mono: 2.8%
  Neu: 14.6%
  PT: 15.8 s
  Plat: 131.3 x10_4/uL
  RBC: 622.4 x10_4/ul
  Ret: 8.7%
  WBC: 116 x10_2/uL
  KIDNEY_L: 1 g
  KIDNEY_R: 1 g
  KIDNEY_TOTAL: 1.9 g
  LIVER: 9.5 g
  A/G: 1.3
  ALP: 1418.8 IU/L
  ALT: 36.6 IU/L
  AST: 71.6 IU/L
  BUN: 11.2 mg/dL
  CRE: 0.2 mg/dL
  Ca: 11.4 mg/dL
  Cl: 107.2 meq/L
  DBIL: 0 mg/dL
  GLC: 181 mg/dL
  IP: 9.4 mg/dL
  K: 4.3 meq/L
  LDH: 166.2 IU/L
  Na: 140.4 meq/L
  PL: 137.4 mg/dL
  RALB: 3.1 g/dL
  TBIL: 0.022 mg/dL
  TC: 78.2 mg/dL
  TG: 63.8 mg/dL
  TP: 5.5 g/dL
  gamma-GTP: 2.4 IU/L
9 h
  TERMINAL_BW: 217.8 g
  APTT: 22.6 s
  Bas: 0%
  Eos: 1%
  Fbg: 319.4 mg/dL
  Hb: 13.2 g/dL
  Ht: 39.5%
  Lym: 73.8%
  MCH: 20.6 pg
  MCHC: 33.4%
  MCV: 61.8 fL
  Mono: 2.8%
  Neu: 22%
  PT: 16.2 s
  Plat: 117.1 x10_4/uL
  RBC: 638.6 x10_4/ul
  Ret: 6.6%
  WBC: 87.6 x10_2/uL
  KIDNEY_L: 0.9 g
  KIDNEY_R: 1 g
  KIDNEY_TOTAL: 1.9 g
  LIVER: 8.9 g
  A/G: 1.2
  ALP: 1569.2 IU/L
  ALT: 39.2 IU/L
  AST: 72 IU/L
  BUN: 11.6 mg/dL
  CRE: 0.1 mg/dL
  Ca: 11 mg/dL
  Cl: 107.6 meq/L
  DBIL: 0 mg/dL
  GLC: 183.8 mg/dL
  IP: 8.9 mg/dL
  K: 3.9 meq/L
  LDH: 183.2 IU/L
  Na: 141 meq/L
  PL: 132.8 mg/dL
  RALB: 3 g/dL
  TBIL: 0.022 mg/dL
  TC: 74 mg/dL
  TG: 54.6 mg/dL
  TP: 5.4 g/dL
  gamma-GTP: 1.6 IU/L
24 h
  TERMINAL_BW: 231.5 g
  APTT: 19.5 s
  Bas: 0%
  Eos: 1%
  Fbg: 327.8 mg/dL
  Hb: 13.3 g/dL
  Ht: 39.7%
  Lym: 80.2%
  MCH: 21 pg
  MCHC: 33.5%
  MCV: 62.7 fL
  Mono: 2%
  Neu: 15.2%
  PT: 15.6 s
  Plat: 124.7 x10_4/uL
  RBC: 633.8 x10_4/ul
  Ret: 7.6%
  WBC: 82.4 x10_2/uL
  KIDNEY_L: 1 g
  KIDNEY_R: 1 g
  KIDNEY_TOTAL: 2 g
  LIVER: 11.2 g
  A/G: 1.3
  ALP: 1530.4 IU/L
  ALT: 39.4 IU/L
  AST: 67.6 IU/L
  BUN: 15 mg/dL
  CRE: 0.1 mg/dL
  Ca: 11.1 mg/dL
  Cl: 105.8 meq/L
  DBIL: 0 mg/dL
  GLC: 189 mg/dL
  IP: 7.8 mg/dL
  K: 4.2 meq/L
  LDH: 171.2 IU/L
  Na: 143.4 meq/L
  PL: 152.4 mg/dL
  RALB: 3.1 g/dL
  TBIL: 0.006 mg/dL
  TC: 79.2 mg/dL
  TG: 145.2 mg/dL
  TP: 5.6 g/dL
  gamma-GTP: 1.4 IU/L
